# “Also recorded” adds a separate entry of the source.
# Tests used:
# [1] = test system: 45 receptors, channels and transporters; experiment: Off-target screen in radioligand binding assays; settings: Table S1
# [2] = test system: wild-type C57BL/6 (WT) or A3AR-KO mice; experiment: Mouse model of A3AR-induced hypothermia; type: in vivo
# hA3AR [3] = target: T1, hA3AR (Homo sapiens, UniProt P0DMS8)
# T1 sequence (P0DMS8 1-318): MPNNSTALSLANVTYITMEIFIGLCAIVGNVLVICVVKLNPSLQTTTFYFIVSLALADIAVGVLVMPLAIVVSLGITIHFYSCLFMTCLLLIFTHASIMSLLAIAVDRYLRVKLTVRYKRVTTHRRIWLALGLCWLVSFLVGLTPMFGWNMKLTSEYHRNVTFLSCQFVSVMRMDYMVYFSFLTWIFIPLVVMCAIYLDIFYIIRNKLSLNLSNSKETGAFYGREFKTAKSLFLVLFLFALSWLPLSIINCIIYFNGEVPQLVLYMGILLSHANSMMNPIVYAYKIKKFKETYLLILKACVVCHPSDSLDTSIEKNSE
# hA3AR [4] = target: T1, hA3AR; settings: fixed concentration of 15 (10 μM), Figure 1C
# mA3AR = target: T2, mA3AR (Mus musculus, UniProt Q61618)
# T2 sequence (Q61618 1-319): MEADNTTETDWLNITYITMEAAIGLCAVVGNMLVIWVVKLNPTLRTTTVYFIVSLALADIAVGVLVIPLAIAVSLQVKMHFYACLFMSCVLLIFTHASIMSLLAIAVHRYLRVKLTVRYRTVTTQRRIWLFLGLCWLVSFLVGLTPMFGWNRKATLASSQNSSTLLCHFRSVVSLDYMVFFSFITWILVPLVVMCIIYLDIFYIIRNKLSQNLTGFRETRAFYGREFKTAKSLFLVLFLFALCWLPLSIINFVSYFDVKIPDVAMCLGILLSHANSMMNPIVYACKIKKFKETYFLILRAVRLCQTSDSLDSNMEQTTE
# [5] = target: translocator protein, TSPO (Rattus norvegicus, UniProt P16257); experiment: Off-target radioligand binding, TSPO
# translocator protein, TSPO, sequence (P16257 whole entry): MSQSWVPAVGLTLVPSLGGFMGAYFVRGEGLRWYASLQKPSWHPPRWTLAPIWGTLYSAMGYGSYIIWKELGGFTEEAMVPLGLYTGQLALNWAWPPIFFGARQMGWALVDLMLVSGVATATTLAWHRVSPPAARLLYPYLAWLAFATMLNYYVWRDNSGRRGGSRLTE
smiles,measurement,setting,value
"COc1cc(CCNc2nc(C#Cc3ccccc3)nc3c2ncn3[C@H]2[C@H](O)[C@H](O)[C@@H]3C[C@@H]32)ccc1O [Compound 15, (1R,2R,3S,4R,5S)-4-(6-((4-Hydroxy-3-methoxyphenethyl)amino)-2-(phenylethynyl)-9H-purin-9-yl)bicyclo[3.1.0]hexane-2,3-diol]",Interaction with other GPCRs,[1],did not interact
same,Effect of pretreatment on hypothermic effect of full agonist 39,"[2]; 3 mg/kg or 10 mg/kg 15, 30 min prior to 39 (3 mg/kg)",did not significantly attenuate
same,Effect on core body temperature (Tb),"[2]; 3 mg/kg, i.p., WT mice (Figure 2B)",only weak hypothermia
same,Effect on core body temperature (Tb) in ADORA3−/− mice,"[2]; 10 mg/kg, i.p., ADORA3−/− mice, versus WT (Figure 2A)",greatly attenuated
same,Effect on core body temperature (Tb),"[2]; 10 mg/kg, i.p., wild-type C57BL/6 mice (Figure 2A)",lowered core body temperature
same,Period over which in vivo agonism was maintained,[2]; mouse,> 2 h
same,increase of hA3AR affinity compared to 8,hA3AR [3],~ 2 fold
same,Antagonism of hA3AR activation by Cl-IB-MECA 38 in cAMP assay,hA3AR [4],greatly inhibited the activation of hA3AR by Cl-IB-MECA; also recorded: shifted the concentration-response curve of Cl-IB-MECA 38 rightward
same,increase of mA3AR affinity compared to 8,mA3AR,~ 27 fold
"CNC(=O)[C@@]12C[C@@H]1[C@@H](n1cnc3c(NCc4cccc(Cl)c4)nc(C#Cc4ccc(F)c(F)c4)nc31)[C@H](O)[C@@H]2O [Compound 39, (1S,2R,3S,4R,5S)-4-(6-((3-chlorobenzyl)amino)-2-((3,4-difluorophenyl)-ethynyl)-9H-purin-9-yl)-2,3-dihydroxy-N-methylbicyclo[3.1.0]hexane-1-carboxamide, reference compound]",Hypothermic effect,"[2]; 3 mg/kg, mice",pronounced hypothermic effect
"Oc1ccc(CCNc2nc(C#Cc3ccccc3)nc3c2ncn3[C@H]2[C@H](O)[C@H](O)[C@@H]3C[C@@H]32)cc1F [Compound 11, (1R,2R,3S,4R,5S)-4-(6-((3-Fluoro-4-hydroxyphenethyl)amino)-2-(phenylethynyl)-9H-purin-9-yl)bicyclo[3.1.0]hexane-2,3-diol]",increase of hA3AR affinity compared to 8,hA3AR [3],2 fold
"Oc1ccc(CCNc2nc(C#Cc3ccccc3)nc3c2ncn3[C@H]2[C@H](O)[C@H](O)[C@@H]3C[C@@H]32)cc1 [Compound 10, (1R,2R,3S,4R,5S)-4-(6-((4-Hydroxyphenethyl)amino)-2-(phenylethynyl)-9H-purin-9-yl)bicyclo[3.1.0]hexane-2,3-diol]",increase of mA3AR affinity compared to 8,mA3AR,6 fold
"COc1cc(CCNc2nc(C#Cc3ccc(Cl)s3)nc3c2ncn3[C@H]2[C@H](O)[C@H](O)[C@@H]3C[C@@H]32)ccc1O [Compound 29, (1R,2R,3S,4R,5S)-4-(2-((5-Chlorothiophen-2-yl)ethynyl)-6-((4-hydroxy-3-methoxyphenethyl)amino)-9H-purin-9-yl)bicyclo[3.1.0]hexane-2,3-diol]",reduction of mA3AR affinity compared to 15,mA3AR,4 fold
"O[C@@H]1[C@H](O)[C@@H]2C[C@@H]2[C@H]1n1cnc2c(N[C@H]3C[C@@H]3c3ccccc3)nc(C#Cc3ccc(Cl)s3)nc21 [Compound 31, (1R,2R,3S,4R,5S)-4-(2-((5-Chlorothiophen-2-yl)ethynyl)-6-(((1S,2R)-2-phenylcyclopropyl)amino)-9H-purin-9-yl)bicyclo[3.1.0]hexane-2,3-diol]",reduction of hA3AR affinity by cyclopropyl constraint of the N6-2-phenylethyl moiety,hA3AR [3]; compared to N6-2-phenylethyl analogue,~ 10 fold
"COc1ccc(CCNc2nc(C#Cc3ccccc3)nc3c2ncn3[C@H]2[C@H](O)[C@H](O)[C@@H]3C[C@@H]32)cc1O [Compound 14, (1R,2R,3S,4R,5S)-4-(6-((3-Hydroxy-4-methoxyphenethyl)amino)-2-(phenylethynyl)-9H-purin-9-yl)bicyclo[3.1.0]hexane-2,3-diol]",reduction of mA3AR affinity compared to 15,mA3AR,7 fold
"O[C@@H]1[C@H](O)[C@@H]2C[C@@H]2[C@H]1n1cnc2c(NCCc3cccc(Cl)c3)nc(C#Cc3ccc(Cl)s3)nc21 [Compound 26, (1R,2R,3S,4R,5S)-4-(6-((3-Chlorophenethyl)amino)-2-((5-chlorothiophen-2-yl)ethynyl)-9H-purin-9-yl)bicyclo[3.1.0]hexane-2,3-diol]",Ki,[5],~350 nM

# — publication PMC7443318 (Journal of medicinal chemistry, 2020)
